Assay results taken from US10654802B2, “Indoline derivatives and method for using and producing the same” (ARIZONA BOARD OF REGENTS ON BEHALF OF THE UNIVERSITY OF …, priority 2016, dated 2020).
pIC50: −log10 of the molar value.

What was measured:
[1] = target: T1, Nox4 (Homo sapiens, UniProt Q9NPH5); test: Inhibition of Nox4-dependent H2O2 production in HEK/Nox4 cells, Amplex Red assay; type: cell-based; settings: for remaining activity at 1 µM: 1 μM final concentration; for remaining activity at 1 µM / remaining activity at 5 µM / remaining activity at 10 µM: DMSO vehicle = 1.000, n = 3-10, read-out: H2O2 production relative to vehicle control, Mean; for remaining activity at 5 µM: 5 μM final concentration; for remaining activity at 10 µM: 10 μM final concentration
T1 construct: expressed in transfected cells
T1 sequence (Q9NPH5 1-578): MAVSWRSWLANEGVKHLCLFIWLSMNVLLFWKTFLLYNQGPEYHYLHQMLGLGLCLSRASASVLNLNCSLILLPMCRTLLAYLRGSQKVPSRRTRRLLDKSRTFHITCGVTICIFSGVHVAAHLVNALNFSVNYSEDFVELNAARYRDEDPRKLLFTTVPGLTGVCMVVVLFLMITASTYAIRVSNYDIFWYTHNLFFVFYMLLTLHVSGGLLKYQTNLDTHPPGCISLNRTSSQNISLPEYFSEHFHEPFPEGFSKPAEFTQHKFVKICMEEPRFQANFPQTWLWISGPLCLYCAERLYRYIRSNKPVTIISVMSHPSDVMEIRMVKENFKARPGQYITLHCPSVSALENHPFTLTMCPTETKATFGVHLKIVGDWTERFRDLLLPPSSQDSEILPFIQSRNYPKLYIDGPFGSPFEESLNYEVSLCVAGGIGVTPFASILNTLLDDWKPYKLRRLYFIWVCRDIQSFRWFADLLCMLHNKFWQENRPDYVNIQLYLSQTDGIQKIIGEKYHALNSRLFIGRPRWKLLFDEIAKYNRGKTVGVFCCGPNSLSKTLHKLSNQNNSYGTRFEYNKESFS
T1 sequence (P13498 1-195 partner): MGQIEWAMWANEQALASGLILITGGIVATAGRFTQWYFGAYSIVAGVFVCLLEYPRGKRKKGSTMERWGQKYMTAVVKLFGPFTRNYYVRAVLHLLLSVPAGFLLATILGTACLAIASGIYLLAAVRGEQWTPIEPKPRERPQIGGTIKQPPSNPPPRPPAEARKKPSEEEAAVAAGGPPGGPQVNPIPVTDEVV
Method: A high-throughput screening (HTS) assay was established for Nox4 inhibition, utilizing HEK293 cells that stably over-express Nox4 (HEK/Nox4 cells), which generate high levels of H2O2(Cheng G et al, Gene: 2001, p. 131-140). Over 30,000 compounds have been screened and medicinal chemistry efforts have led to the synthesis of numerous analogs and the identification of a chemically distinct series of selective Nox4 inhibitors. […] IC-50 was evaluated for UANox048 (FIG. 1B).
HEK cells stably transfected to overexpress Nox4 were treated with varying concentrations of test compounds, DPI (all-Nox inhibitor positive control), or DMSO (vehicle control) and incubated for 1 h (FIG. 1). (FIG. 1A) H2O2 presence was evaluated by Amplex Red assay. […] Values represent means±SEM; n=4. P values were calculated by student's two-tailed t test. *p<0.05, **p<0.01, *** p<0.001.

[2] = tested on: Caco-2 cells; test: Caco-2 permeability; type: in vitro ADME; settings: 5 μM, 2 h
Method: (§1) In vitro absorption, distribution, metabolism, and excretion (ADME) were performed on selected analogs to assess their potential for continued pre-clinical development. UANox048 analog has favorable pharmacokinetic/pharmacodynamics properties, including a low molecular weight (384.4 g/mol), calculated log D value (4.07), and polar surface area (57.8 Å^2). The compounds were tested for cellular permeability and P-glycoprotein efflux susceptibility (P-gp efflux). […] P-gp efflux was calculated by comparing permeability through Caco-2 monolayers in both the apical-to-basolateral and basolateral-to-apical directions. Permeability for Caco-2 cells was determined by the lucifer yellow monolayer integrity test. Caco-2 cells were incubated with UANox048 (5 μM, 2 h) and flux of lucifer yellow across cell monolayers was determined by LC-MS/MS using electrospray ionization. Molecular weight, log D, and polar surface area calculations were performed with ChemDraw software.

[3] = tested on: HEK cells stably transfected to overexpress Nox4; test: Cellular viability of HEK/Nox4 cells, CellTiter-Glo Assay; type: cell-based; settings: 1 h, FIG. 2C
Method: Screening was performed to rule out false positives.
UANoxO48, DMSO (vehicle control), or catalase (known H2O2 scavenger positive control) was added to a cell-free assay containing exogenous H2O2(5 mM) and scavenger activity for H2O2 was assessed by (FIG. 2A) Amplex Red assay and (FIG. 2B) ROS-Glo assay (an HRP-free assay system to rule out assay interference). (FIG. 2C) HEK cells stably transfected to overexpress Nox4 were treated with UANox048, digitonin (an inducer of cell death), or DMSO (vehicle control) and incubated for 1 h. Cellular viability was evaluated by CellTiter-Glo Assay. Values represent means±SEM; n=4; P values were calculated by student's two-tailed t test. *p<0.05, **p<0.01, *** p<0.001.

[4] = target: T2, P-glycoprotein (Homo sapiens, UniProt P08183); test: P-glycoprotein efflux susceptibility in Caco-2 monolayers; type: in vitro ADME; settings: apical-to-basolateral vs basolateral-to-apical
T2 construct: endogenous in cells; host or cells: Caco-2
T2 sequence (P08183 whole entry): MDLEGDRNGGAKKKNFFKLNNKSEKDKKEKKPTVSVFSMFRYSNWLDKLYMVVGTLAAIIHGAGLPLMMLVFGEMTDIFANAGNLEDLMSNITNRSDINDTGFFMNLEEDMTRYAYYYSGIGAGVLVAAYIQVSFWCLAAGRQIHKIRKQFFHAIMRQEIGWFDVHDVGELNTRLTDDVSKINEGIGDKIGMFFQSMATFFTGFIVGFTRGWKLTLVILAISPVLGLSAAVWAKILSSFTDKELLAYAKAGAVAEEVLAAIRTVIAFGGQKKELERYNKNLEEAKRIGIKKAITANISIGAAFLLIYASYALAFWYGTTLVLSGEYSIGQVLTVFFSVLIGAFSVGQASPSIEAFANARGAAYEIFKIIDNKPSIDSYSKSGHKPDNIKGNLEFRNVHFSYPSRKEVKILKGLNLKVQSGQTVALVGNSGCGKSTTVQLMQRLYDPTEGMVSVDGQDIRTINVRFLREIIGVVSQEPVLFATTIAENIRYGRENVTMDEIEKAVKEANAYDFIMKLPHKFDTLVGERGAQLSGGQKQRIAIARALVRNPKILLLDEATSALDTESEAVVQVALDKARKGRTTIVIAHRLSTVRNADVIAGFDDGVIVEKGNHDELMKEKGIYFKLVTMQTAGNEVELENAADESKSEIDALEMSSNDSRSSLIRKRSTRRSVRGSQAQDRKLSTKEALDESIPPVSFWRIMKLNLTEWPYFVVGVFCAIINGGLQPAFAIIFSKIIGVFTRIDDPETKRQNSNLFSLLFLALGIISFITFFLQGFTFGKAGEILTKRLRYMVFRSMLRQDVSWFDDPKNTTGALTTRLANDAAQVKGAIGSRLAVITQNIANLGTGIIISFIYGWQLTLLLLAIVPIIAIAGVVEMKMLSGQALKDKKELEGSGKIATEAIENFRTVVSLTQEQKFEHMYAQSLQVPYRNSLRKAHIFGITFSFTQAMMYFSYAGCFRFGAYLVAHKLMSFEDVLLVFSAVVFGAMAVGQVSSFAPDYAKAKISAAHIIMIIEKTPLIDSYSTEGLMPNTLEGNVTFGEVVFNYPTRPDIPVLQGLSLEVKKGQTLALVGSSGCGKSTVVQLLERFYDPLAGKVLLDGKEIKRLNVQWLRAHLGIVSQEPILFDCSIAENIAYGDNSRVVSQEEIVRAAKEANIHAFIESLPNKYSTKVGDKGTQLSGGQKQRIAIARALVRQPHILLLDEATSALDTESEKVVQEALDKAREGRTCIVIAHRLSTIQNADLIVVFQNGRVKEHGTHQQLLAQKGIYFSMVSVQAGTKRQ
Method: as §1

[5] = Differential scanning calorimetry (DSC) thermal stability; type: physicochemical; settings: solid state; room and body temperatures (32-37° C.)
Text: Differential scanning calorimetry (DSC) was used, a highly sensitive thermos-analytical technique to quantify the thermotropic properties and phase transitions of drug candidates. […] X-ray powder diffraction (XRPD) is a non-destructive material science “gold standard” method for measuring the degree of long-range molecular order in the powder. This is critical for solid-state characterization, where drug candidates yield a unique pattern for any given crystalline phase; this provides a ‘molecular fingerprint’ for crystallinity identification. […] Attenuated Total Reflection Fourier Transform Infrared (ATR-FTIR) Spectroscopy is a non-destructive molecular identification tool based on the absorption of infrared light by vibrational transitions in covalent bonds. This provides a ‘molecular fingerprint’ for chemical identification. ATR-FTIR permits fine discrimination between like materials and/or batch-to-batch quality verification; it is used to identify active pharmaceutical ingredients (API). […] Scanning Electron Microscopy (SEM) with Energy Dispersive X-ray (EDX) is used to visualize the synthesized particles in their native solid-state and quantify important particle properties which directly influence formulation, including surface structure, particle morphology and size, and particle size range distribution. […]

remaining activity at 1 µM ([1]; 1 h, HEK/Nox4 cells) | remaining activity at 5 µM ([1]; 1 h, HEK/Nox4 cells) | remaining activity at 10 µM ([1]; 1 h, HEK/Nox4 cells) | SMILES | pIC50 ([1]; HEK/Nox4 cells, 1 h, Amplex Red, FIG. 1B) | H2O2 generation by HEK/Nox4 cells ([1]; varying concentrations, Amplex Red, FIG. 1A) | Caco-2 permeability [2] | cellular viability [3] | P-gp efflux [4] | stability (DSC) [5]
87.8% | 88% | 76.3% | COc1cccc(-c2ccc3c(c2)CCN3C(C)CNS(=O)(=O)N2CCN(C)CC2)c1 (stereo not drawn) [UANOX0254, N-(2-(5-(3-methoxyphenyl)indolin-1-yl)propyl)-4-methylpiperazine-1-sulfonamide] |  |  |  |  |  | 
90.7% | 81.6% | 71.4% | CC(C)(CNS(=O)(=O)c1ccc(F)cc1)N1CCc2ccccc21 [UANOX086, 4-fluoro-N-(2-(indolin-1-yl)-2-methylpropyl)benzenesulfonamide] |  |  |  |  |  | 
90.8% | 85.6% | 77% | CC(CNS(=O)(=O)c1ccc(Oc2ccccc2)cc1)N1CCc2ccccc21 (stereo not drawn) [UANOX071, N-(2-(indolin-1-yl)propyl)-4-phenoxybenzenesulfonamide] |  |  |  |  |  | 

SMILES | remaining activity at 1 µM ([1]; 1 h, HEK/Nox4 cells) | remaining activity at 5 µM ([1]; 1 h, HEK/Nox4 cells) | remaining activity at 10 µM ([1]; 1 h, HEK/Nox4 cells) | pIC50 ([1]; HEK/Nox4 cells, 1 h, Amplex Red, FIG. 1B) | H2O2 generation by HEK/Nox4 cells ([1]; varying concentrations, Amplex Red, FIG. 1A) | Caco-2 permeability [2] | cellular viability [3] | P-gp efflux [4] | stability (DSC) [5]
CC(CNS(=O)(=O)c1ccc(C(F)(F)F)cc1)N1CCc2ccccc21 (stereo not drawn) [UANOX048, N-(2-(indolin-1-yl)propyl)-4-(trifluoromethyl)benzenesulfonamide] | 89.3% | 76.5% | 69.3% | 5.32 | dose-dependent decrease | high | does not affect cellular viability | no P-gp efflux | highly stable
